Measured values taken from patent publication US9926529B2, “Derivation of neural stem cells and dopaminergic neurons from human pluripotent stem cells” (International Stem Cell Corporation, priority 2012, dated 2018).
Structures can show the parent of a compound that is named as a salt. Where two headings read alike, the source gives them in different places.

Test system: hPSC-NSCs
Assay: RT-PCR expression of dopamine neuron genes in hPSC-NSCs treated with small molecule hits
Assay type: cell-based, human
Details: for fold induction at 2.5 µM: Homo sapiens, Neuron, 336 h
Experimental: The method specifically involved treating both hESC-H9-NSCs (Invitrogen) and hPSC-NSCs with Purmorphamine (2 μM) and FGF8 (100 ng/mL) in NB medium [NeuroBasal medium, 1× GlutaMAX, 1× N2/B27 Supplement (Invitrogen)] for 7 days. After 7 days of Purmorphamine and FGF8 treatment, the NSCs were dissociated with Accutase (Sigma) and plated 20,000 cells/mL into Matrigel coated 96 well plates and treated with small molecule library (Torcris 1120 Biologically Active Compounds) at 2.5 μM final concentration for two weeks (FIG. 6A). Two weeks after treatment with small molecules, all wells were visually observed and scored based on neurite density and dopamine release. For measuring neurite density, cells were fixed with 4% paraformaldehyde and phase contrast images were acquired using Cellavista Cell Imaging System (Roche Applied Science) from randomly selected fields. Neurite density was measured using the Cellavista density software image processing program. Each experimental condition was done in duplicate wells, and at least three independent experiments were conducted to acquire the final results.
Conditioned medium from the top neurite inducers (Table 1) (wells containing the highest density of neurites compare to control 0.1% DMSO treated) were collected and analyzed using a dopamine ELISA assay (Cosmo Bio). Conditioned medium was collected from samples containing 50,000 cells per well and centrifuged at 3000 RPM to remove cell debris. Supernatant was then collected and analyzed for quantitative determination of dopamine using a commercial dopamine ELISA assay kit (CusaCosmo Bio). Data analysis was performed using the microtiter plate reader (BIO-TEK Synergy 2). The results presented are from three independent experiments (n=3) and represented as mean±standard error of mean (s.e.m.) and statistical analysis was performed using the two-tailed Student's t-test with a confidence level of 95% (α=0.05) with statistical significance of P<0.05. Additionally, total RNA from each well were collected and analyze by RT-PCR for expression of TuJ1, MAP2, TH, GRK2, EN1, DAT, AADC, PAX2, NURR1, PITX3 and LMX1B from hPSC-NSCs (Table 2). […] Analysis of the ELISA data indicated the top small molecule neurite inducers produced higher levels of dopamine than control non-treated cells (1.5 ng/mL). […] The percentages of TH positive cells produced by chemical treatment with Kenpaullone (33%), Guggulsterone (35%), Kynurenic Acid (19%), Immedthridine Dihydrobromide (21%), and Dimaprit Dihydrochloride (18%) were higher than 15% of TH positive cells obtained from hPSC-NSCs differentiated for ≥1 month using a standard dopaminergic differentiation medium (BDNF 20 ng/mL, GDNF 20 ng/mL, cAMP 200 μM, Abscorbic Acid 200 μM, TGFβ3 2 ng/mL and DAPT).
Total RNA from at least triplicate samples with around 1 million cells each was isolated using either QIAsymphony automatic purification system or RNeasy Plus Mini kit, according to manufacturer's instructions (Qiagen). Total RNA was used for reverse transcription with the iScript cDNA synthesis kit (Biorad) and Px2 Thermal Cycler (Thermo Scientific). To analyze gene expression, PCR reactions were performed in duplicate using 1/25-th of the cDNA per reaction and the QuantiTect Primer Assay and Quantitest SYBR Green master mix (Qiagen). qPCR was performed using the Rotor-Gene Q (Qiagen) 5 min at 95° C., 5 s at 92° C., and 20 s at 60° C. for 37 cycles followed by melt to check the specificity of the amplicons from 50 to 99° C. raising by 1° C. each step. Relative quantification was performed against a standard curve and quantified values were normalized against the input determined by PPIG. The primers used for the analysis are listed in Supplementary Table S1. […]

[1] = hPSC-NSCs primed 7 days with Purmorphamine and FGF8, small molecule 2.5 μM for two weeks
[2] = hPSC-NSCs primed 7 days with Purmorphamine and FGF8, small molecule 2.5 μM for two weeks, read-out: DDC (AADC) expression by RT-PCR
[3] = hPSC-NSCs primed 7 days with Purmorphamine and FGF8, small molecule 2.5 μM for two weeks, read-out: EN1 expression by RT-PCR
[4] = hPSC-NSCs primed 7 days with Purmorphamine and FGF8, small molecule 2.5 μM for two weeks, read-out: KCNJ6 expression by RT-PCR
[5] = hPSC-NSCs primed 7 days with Purmorphamine and FGF8, small molecule 2.5 μM for two weeks, read-out: MAP2 expression by RT-PCR
[6] = hPSC-NSCs primed 7 days with Purmorphamine and FGF8, small molecule 2.5 μM for two weeks, read-out: NR4A2 (NURR1) expression by RT-PCR
[7] = hPSC-NSCs primed 7 days with Purmorphamine and FGF8, small molecule 2.5 μM for two weeks, read-out: PITX3 expression by RT-PCR
[8] = hPSC-NSCs primed 7 days with Purmorphamine and FGF8, small molecule 2.5 μM for two weeks, read-out: SLC6A3 (DAT) expression by RT-PCR
[9] = hPSC-NSCs primed 7 days with Purmorphamine and FGF8, small molecule 2.5 μM for two weeks, read-out: TH1 expression by RT-PCR
[10] = hPSC-NSCs primed 7 days with Purmorphamine and FGF8, small molecule 2.5 μM for two weeks, read-out: Tubb3 expression by RT-PCR
[11] = hPSC-NSCs primed 7 days with Purmorphamine and FGF8, small molecule 2.5 μM for two weeks, read-out: LMX1B expression by RT-PCR
[12] = hPSC-NSCs primed 7 days with Purmorphamine and FGF8, small molecule 2.5 μM for two weeks, read-out: Pax2 expression by RT-PCR
[13] = read-out: SLC6A3 (DAT) expression by RT-PCR

SMILES	DDC (AADC) expression by RT-PCR [1]	EN1 expression by RT-PCR [1]	KCNJ6 (GRK2) expression by RT-PCR [1]	LMX1B expression by RT-PCR [1]	MAP2 expression by RT-PCR [1]	NR4A2 (NURR1) expression by RT-PCR [1]	Pax2 expression by RT-PCR [1]	SLC6A3 (DAT) expression by RT-PCR [1]	TH1 expression by RT-PCR [1]	Tubb3 expression by RT-PCR [1]	fold induction at 2.5 µM [2]	fold induction at 2.5 µM [3]	fold induction at 2.5 µM [4]	fold induction at 2.5 µM [5]	fold induction at 2.5 µM [6]	fold induction at 2.5 µM [7]	fold induction at 2.5 µM [9]	fold induction at 2.5 µM [10]	further results
Cl.O=C(O)COc1ccc(OCCNC[C@H](O)COc2ccccc2)cc1 [ICI 215,001 hydrochloride]	29.34	8.52	1.48	4.79	11.2	2.88	39.43	1.77	6.04	5.54	–	–	–	–	–	–	–	–	–
O=C(CCCN1CCC2(CC1)C(=O)NCN2c1ccccc1)c1ccc(F)cc1 [Spiperone hydrochloride]	–	–	–	–	–	–	–	–	–	–	13.1	7.4	0.24	9.66	0.58	0.18	11.1	3.57	fold induction at 2.5 µM [8]: 1.25
Br.CCCN(CCC)C1CCc2cccc(O)c2C1 (stereo not drawn) [8-Hydroxy-DPAT hydrobromide]	124.29	11.69	0.9	5.42	14.43	7.66	1.25	19.9	7.32	7.8	–	–	–	–	–	–	–	–	–
CC1=C(/C=C/C(C)=C/C=C/C(C)=C/C(=O)O)C(C)(C)CCC1 [Retinoic acid]	–	–	–	–	–	–	–	–	–	–	110	12.8	2.8	7.7	153	0.04	1.99	7.05	fold induction at 2.5 µM [11]: 1.25; fold induction at 2.5 µM [12]: 0.5; fold induction at 2.5 µM [8]: 1.99
CCCC[C@@H](C=O)NC(=O)[C@H](CC(C)C)NC(=O)OCc1ccccc1 [Calpeptin]	–	–	–	–	–	–	–	–	–	–	295	6.93	4.43	12.9	2.45	0.37	15.2	6.1	fold induction at 2.5 µM [13]: 6.57; fold induction at 2.5 µM [11]: 2.9; fold induction at 2.5 µM [12]: 3.54
O=C(O)/C=C/CO [trans-4-Hydroxycrotonic acid]	–	–	–	–	–	–	–	–	–	–	69.7	12.7	0.22	12.4	4.49	–	13.2	10.8	fold induction at 2.5 µM [13]: 6.11
Cc1nnc2ccc(-c3cccc(C(F)(F)F)c3)nn12 [CL 218872]	8.73	5.69	0.43	2.52	8.94	1.79	0.09	0.98	13.89	4.3	–	–	–	–	–	–	–	–	PITX3 expression by RT-PCR [1]: 0.08
C/C(=C\c1ccc(C(=O)O)cc1)c1ccc2c(c1)C(C)(C)CCC2(C)C [TTNPB]	21.95	9.42	0.69	1.45	6.36	14.8	0.09	0.5	5.5	4.64	–	–	–	–	–	–	–	–	–
Cl.N=C(N)NC(=N)Nc1cccc(Cl)c1 [m-Chlorophenylbiguanide hydrochloride]	69.41	7.96	1.65	3.73	9.6	5.51	0.28	1.53	6.67	4.97	–	–	–	–	–	–	–	–	–
